Experimental data taken from patent US20030198617A1, “Pharmaceutical tryptophan containing dipeptide compositions and methods of use thereof” (priority 1993, published 2003).
Where two headings read alike, the source gives them in different places.

What was measured:
AIDS = AIDS infected and immunosuppressed individuals; type: in vivo, human
[1] = Pyoderma patients (furunculitis, cellulitis, folliculitis); type: in vivo, human; conditions: IM or intranasally 5 days
Protocol: Patients with pyoderma, including furunculitis, cellulitis, and folliculitis, are treated with Ile-Trp with a control group which is not treated with Ile-Trp. Medications are administered either IM or intranasally for 5 consecutive days. […] Clinical improvement correlate with immunological indices correction. Administration IM, intranasally, or topically as a sterile saline, solution of medication for a period of 5 to 10 days at a concentration of 1 μg/kg body weight.
Medications were administered either IM or intranasally for 5 consecutive days. […] Clinical improvement correlated with immunological indices correction. Administration IM, intranasally, or topically as a sterile saline solution of medication for a period of 5 to 10 days at a concentration of 1 μg/kg body weight.

Acne vulgaris patients = type: in vivo, human
Description: A number of patients within the group patients afflicted with furunculitis, pyoderma, cellulitis, and folliculitis are afflicted with acne vulgaris and acne. […] The clinical outcome correlates with the correction of immunological indices, and relapses are controlled.
A number of patients within the group of 159 patients afflicted with furunculitis, pyoderma, cellulitis, and folliculitis were afflicted with acne vulgaris and acne. […] The clinical outcome correlated with the correction of immunological indices, and relapses were controlled.

[2] = Female patients with pelvic inflammatory diseases, cervicitis, vaginitis, abscesses; type: in vivo, human
Protocol: Female patients with the various disorders (pelvic inflammatory diseases, cervicitis, vaginitis and various tubo-ovarian and adnexal abscesses) are treated and some patients are used as controls. Ile-Trp is applied IM, intranasally at 100 μg 5 consecutive days or 50 μg intralymphatically for 5 consecutive days in conjunction with conventional therapy. […] The normalization of immune status correlates with clinical improvements.
The normalization of immune status correlated with clinical improvements.

[3] = Gingival disease patients; type: in vivo, human
Protocol: Patients are treated for gingival disease by subcutaneous administration of Ile-Trp in the area of the gingiva. […] Administration of 100 μg IM, subcutaneously, or by electrophoresis (whereby a small voltage charge to the gums results in a rapid transfer of medication through the gum epithelium) results in the arresting of bleeding, more rapid restoration of inflammatory processes, and the decrease of purulent discharge. The treatment results in fewer recurrences and prolongation of normal gums.

[4] = Toothpaste containing the dipeptide: dental caries, gingival disease; type: in vivo, human
Periapical granulomas = type: in vivo, human; conditions: 3 days
Protocol: Patients with periapical granulomas treated with Ile-Trp are tested.

viral infection = test: Acute respiratory disease patients; type: in vivo, human
Protocol: Patients with acute respiratory disease, including upper airway diseases, such as colds, are treated with Ile-Trp. […] Secondary infectious complications are diminished, and the duration of the treatment is also diminished.
There was noted a decrease in the specific signs of upper respiratory infections such rhinorrhea, sore throat, fever, muscle aches, headaches, and ear pain. Secondary infectious complications were diminished, and the duration of the treatment was also diminished.

[5] = Chronic and acute ear infections; type: in vivo, human
[6] = Symptom complexes: joint pain, muscle aches, fevers, chills (Examples 17, 66); type: in vivo, human
[7] = Patients with various allergies; type: in vivo, human
[8] = Deformity and scarring after injuries; type: in vivo, human
[9] = Chemotherapy complications and side effects; type: in vivo, human
Toxemia of pregnancy = type: in vivo, human
Protocol: Ile-Trp is applied in pregnant women with Toxemia of first and second half of pregnancy. Ile-Trp is administered IM and intranasally at 100 μg daily for 5-10 days. It is observed that the BP normalized, and peripheral edema is reduced with normalization of the blood chemistry profile, and the restoration of initially altered immunologic indices.
The control group comprised 54 patients.

tropical malaria = test: Relapsing tropical malaria; type: in vivo, human
Protocol: Patients are studied who have relapsing forms of tropical malaria, moderate to severe, and severe cases with 21 patients in the control group. Ile-Trp is administered at 100 μg single daily doses Im or intranasally for 5-10 days.
A total of 33 patients were studied with patients who had relapsing forms of tropical malaria, moderate to severe, and severe cases with 21 patients in the control group.

hemorrhagic Dengue Fever = test: Hemorrhagic Dengue Fever (Examples 38, 94); type: in vivo, human
Description: Ile-Trp is applied in patients with hemorrhagic Dengue Fever. […]
It was also noted that the muscular and bone pain experienced typically was reduced, and the immunological indices were normalized.

TB bacilli = type: in vivo, human; conditions: 5 doses
Bronchial asthma = type: in vivo, human
Description: Patients, children and adults, with bronchial asthma are studied. […] A significant reduction in bronchial obstruction and laryngotracheitis is noted.
A total of 37 patients, children and adults, with bronchial asthma and 28 similar patients as controls were studied. […] The significant reduction in bronchial obstruction and laryngotracheitis was noted. […] In some of the patients it was possible to avoid steroids in the conventional commitment treatment course. In the allowing year observation there was noted a decrease in the incidence of bronchial asthma 4.2 fold. In more than half of the patients the disappearance of drug and food allergy manifestations was noted.

Description for Shigella: A total 125 patients infected with Shigella dysentery are examined.
A total 125 patients with 53 patients for control infected with Shigella dysentery were examined.

Question: For Ile-Trp, which “immunologic indices, T-cell functional activity, T4/T8 ratios” value (AIDS; Ile-Trp, AIDS infected individuals) is on record?
Answer: The value was “restoring normal immunologic indices”.

Question: What about the immunological indices (AIDS; Ile-Trp, immunosuppressed individuals with radiation injuries) of the same substance?
Answer: Its immunological indices is “excellent restoration of immunological indices”.

Question: What about the clinical effect ([1]; Ile-Trp) of the same substance?
Answer: Its clinical effect is “Immunological indices are normalized with disappearance of skin manifestations”.

Question: What about the immunological indices (Acne vulgaris patients; Ile-Trp group) of the same substance?
Answer: Its immunological indices is “corrected and normalized rapidly”.

Question: And the clinical effect ([2]; Ile-Trp with conventional therapy)?
Answer: Its clinical effect is “arresting of pain syndrome”.

Question: And the clinical effect ([3]; Ile-Trp, subcutaneous in the gingiva)?
Answer: Its clinical effect is “arresting of gingival disease”.

Question: What about the clinical effect ([4]; toothpaste containing Ile-Trp) of the same substance?
Answer: Its clinical effect is “reduction of gingival disease and reduction in dental caries”.

Question: What about the clinical effect (Periapical granulomas; Ile-Trp 100 μg instillation) of the same substance?
Answer: The clinical effect was “accelerated arrestation of the inflammatory process”.

Question: And the clinical effect (viral infection; Ile-Trp 100 μg 3-7 days)?
Answer: Its clinical effect is “milder course of the viral infection”.

Question: And the clinical effect ([5]; Ile-Trp with antibiotics)?
Answer: The clinical effect was “accelerated healing of chronic and acute ear infections”.

Question: And the clinical effect ([6]; Ile-Trp 100 μg 5-10 days)?
Answer: The clinical effect was “accelerated reduction in symptom complexes”.

Question: What about the clinical effect ([7]; Ile-Trp 1 μg/kg 5-7 days) of the same substance?
Answer: Its clinical effect is “disappearance of allergic reactions”.

Question: What about the clinical effect ([8]; Ile-Trp IM or intranasally) of the same substance?
Answer: The clinical effect was “less deformity and scarring”.

Question: What about the clinical effect ([9]; Ile-Trp during chemotherapy) of the same substance?
Answer: Its clinical effect is “fewer complications and side effects related to chemotherapy”.

Question: What about the clinical effect (Toxemia of pregnancy; Ile-Trp 100 μg daily 5-10 days) of the same substance?
Answer: Its clinical effect is “BP normalized”.

Question: What about the clinical effect (tropical malaria; Ile-Trp 100 μg 5-10 days) of the same substance?
Answer: Its clinical effect is “reduction of hepatolineal syndrome”.

Question: And the clinical effect (hemorrhagic Dengue Fever; Ile-Trp IM 100 μg 5 days with conventional therapy)?
Answer: Its clinical effect is “reduction in fever”.

Question: What about the clinical effect (TB bacilli; Ile-Trp 50 to 100 μg every other day, with conventional therapy) of the same substance?
Answer: Its clinical effect is “disappearance of toxic symptoms”.

Question: What about the clinical effect (Bronchial asthma; Ile-Trp IM 1 μg/kg 5-10 days) of the same substance?
Answer: The clinical effect was “less severe clinical symptoms”.

Question: And the clinical effect (Shigella; Ile-Trp IM 100 μg 10 days)?
Answer: The clinical effect was “normalization of fever”.

Question: For Glu-Trp [IM862], which immunological indices (AIDS; IM862, immunosuppressed individuals with radiation injuries) is on record?
Answer: Its immunological indices is “excellent restoration of immunological indices”.

Question: And the “comparison with TPI as cell mediator” value (AIDS; IM862 vs TPI)?
Answer: Its value is “far more effective cell mediator”.

Question: What about the clinical effect ([1]; IM862, 159 patients) of the same substance?
Answer: Its clinical effect is “Immunological indices were normalized with disappearance of skin manifestations”.

Question: And the immunological indices (Acne vulgaris patients; IM862 group)?
Answer: Its immunological indices is “corrected and normalized rapidly”.

Question: And the clinical effect ([2]; IM862 with conventional therapy, 46 patients)?
Answer: Its clinical effect is “arresting of pain syndrome”.

Question: What about the clinical effect ([3]; IM862, subcutaneous in the gingiva) of the same substance?
Answer: The clinical effect was “arresting of gingival disease”.

Question: And the clinical effect ([4]; toothpaste containing IM862)?
Answer: Its clinical effect is “reduction of gingival disease and reduction in dental caries”.

Question: What about the clinical effect (Periapical granulomas; IM862 100 μg instillation, 46 patients) of the same substance?
Answer: The clinical effect was “accelerated arrestation of the inflammatory process”.

Question: What about the clinical effect (viral infection; IM862 100 μg 3-7 days, 186 patients) of the same substance?
Answer: Its clinical effect is “milder course of the viral infection”.

Question: And the clinical effect ([5]; IM862 with antibiotics)?
Answer: The clinical effect was “accelerated healing of chronic and acute ear infections”.

Question: And the clinical effect ([6]; IM862 100 μg 5-10 days, 156 patients)?
Answer: Its clinical effect is “accelerated reduction in symptom complexes”.

Question: And the clinical effect ([7]; IM862 1 μg/kg 5-7 days, 29 patients)?
Answer: Its clinical effect is “disappearance of allergic reactions”.

Question: And the clinical effect ([8]; IM862 IM or intranasally)?
Answer: The clinical effect was “less deformity and scarring”.

Question: And the clinical effect ([9]; IM862 during chemotherapy)?
Answer: Its clinical effect is “fewer complications and side effects related to chemotherapy”.

Question: What about the clinical effect (Toxemia of pregnancy; IM862 100 μg daily 5-10 days, 97 women) of the same substance?
Answer: Its clinical effect is “BP normalized”.

Question: And the clinical effect (tropical malaria; IM862 100 μg 5-10 days, 33 patients)?
Answer: Its clinical effect is “reduction of hepatolineal syndrome”.

Question: And the clinical effect (hemorrhagic Dengue Fever; IM862 IM 100 μg 3 days with conventional therapy, 21 patients)?
Answer: Its clinical effect is “reduction in fever”.

Question: What about the clinical effect (TB bacilli; IM862 50 to 100 μg every other day, 2 months after the course, 37 patients) of the same substance?
Answer: Its clinical effect is “disappearance of toxic symptoms”.

Question: What about the “decrease in the incidence of bronchial asthma” value (Bronchial asthma; IM862, following year observation) of the same substance?
Answer: The value was 4.2 fold.

Question: And the clinical effect (Bronchial asthma; IM862 IM 1 μg/kg 5-10 days, 37 patients)?
Answer: The clinical effect was “less severe clinical symptoms”.

Question: And the clinical effect (Shigella; IM862 IM 100 μg 10 days, 125 patients)?
Answer: The clinical effect was “normalization of fever”.
